From patent US10821177B2, “Induction of differential stress resistance and uses thereof” (University of Southern California, priority 2007, dated 2020)
Entries after “also recorded” stand apart in the source; their conditions may differ. Read-outs that look alike come from different tables or passages of the source.

Columns and labels:
[1] = test system: LID mice; conditions: for mortality: 500 mg/kg cyclophosphamide i.p.
Procedure: Thirty-four to forty-two-week old LID and their control L/L-mice were used to evaluate the role of circulating liver-derived IGF-I in stress resistance. LID and L/L-mice were generated using the Cre/loxP system as described before. […] All mice were individually caged throughout the experiment and had access to food and water ad libitum. Both LID and L/L-mice were each injected 500 mg/kg of cyclophosphamide i.p. using 29G insulin syringes. Cyclophosphamide was prepared in saline at 40 mg/ml and warmed prior to injection. Mice were routinely monitored for weight loss and signs of pain and stress. Survival time was the main criterion for determining the effect of low circulating IGF-I on the resistance to high-dose cyclophosphamide. The statistical significance of differential survival between experimental groups was determined by Kaplan-Meier curves and log-rank test using GraphPad Prism 4 software (San Diego, Calif.).

[2] = test system: primary rat mixed glial cells; experiment: Cyclophosphamide cytotoxicity by LDH release (serum restriction, IGF-I, aIR3) in primary glia; type: cell-based; conditions: 15 mg/ml CP, 10% serum
Procedure: (§4) Primary mixed glial cells were obtained from the cerebral cortex of 1 to 3 day old Sprague Dawley rat pups (Charles River) as described before. Cells cultured for 10-14 days in DMEM/F12 medium with 10% fetal bovine serum (FBS) were used in assays. C6, A10-85, 9L and RG2 rat glioma cell lines and LN229 human glioma cell line and SH-SY5Y human neuroblastoma cell line were maintained in DMEM/F12 medium with 10% FBS at 37° C. under 5% CO2.
Cells were seeded into 96-well microliter plates at 20,000-30,000 cells/well and incubated for 2 days. Cells were washed with phosphate buffered saline (PBS) prior to treatments as indicated in the text. All treatments were performed at 37° C. under 5% CO2. […]
(§5) Cytotoxicity was measured by either LDH release using the CytoTox 96 Non-Radioactive Cytotoxicity Assay kit (Promega) or the ability to reduce methylthiazolyldiphenyltetrazolium bromide (MTT). % LDH release was determined with reference to the maximum and background LDH release of control cells. […]
Cyclophosphamide (CP, Sigma) was used for in vitro chemotherapy studies. […] Cytotoxicity was measured by either lactate dehydrogenase released using the CytoTox 96 Non-Radioactive Cytotoxicity Assay kit (Promega) or the ability to reduce methylthiazolyldiphenyl-tetrazolium bromide (MTT). […]

[3] = test system: C6 glioma cells; experiment: Cyclophosphamide cytotoxicity by LDH release in C6 glioma cells; type: cell-based, rat
Procedure: as §4
(§6) Cells were seeded into 96-well microliter plates at 20,000-30,000 cells/well and incubated for 2 days. Cells were washed with phosphate buffered saline (PBS) prior to treatments as indicated in the text. All treatments were performed at 37° C. under 5% CO2.
Glucose restriction was done by incubating cells in glucose free DMEM (Invitrogen) supplemented with either low glucose (0.5 gL) or normal glucose (1.0 gL) for 24 hours. Serum restriction was done by incubating cells in DMEMIF12 with either 10% or 1% FBS for 24 hours. IGF-I treatment was carried out by incubating cells for 48 hours in DMEM/F12 with 1% FBS and rhIGF-I (100 n g/ml, ProSpec-Tany TechnoGene, Rehovot, Israel), which is shown to be within the IGF-I level range for middle age humans. To antagonize IGF-I receptor activity, cells were incubated with neutralizing monoclonal anti-IGF-IR antibody (aIR3, 1 pg/ml; Calbiochem) in DMEM/F12 1% FBS for 24 hours.
as §5
Cyclophosphamide (CP, Sigma) was used for in vitro chemotherapy studies. […] Cytotoxicity was measured by either lactate dehydrogenase released using the CytoTox 96 Non-Radioactive Cytotoxicity Assay kit (Promega) or the ability to reduce methylthiazolyldiphenyl-tetrazolium bromide (MTT). LDH released into the medium by lysed cells were measured with a 10-minute enzymatic assay that converts a tetrazolium salt (INT) into a red formazan product.

[4] = test system: S. cerevisiae; type: cell-based; conditions: 48-hour treatment with CP (0.1 M), strains treated separately
Procedure: Overnight cultures were diluted to OD600 0.1 into SDC medium. After 24 hours (day I), the appropriate strains were mixed 1:1 based on OD600 and incubated for 2 hours. […] For treatment SDC, MMS was introduced directly into the mixed culture to a final concentration of 0.01%. However, due to the high concentration of CP (0.1 M) used, CP was dissolved directly into the medium. To do so, mixed cultures were centrifuged for 5 minutes at 2,500 rpm and the media was collected, in which CP was dissolved to a concentration of 0.1 M. The mixed culture was then resuspended in the CP-containing medium. For treatments in water (STS), mixed cultures were centrifuged for 5 minutes at 2,500 rpm and the media was replaced with either distilled/sterile water or drug-dissolved water. Viability was measured by quantifying colony-forming units (CFUs) every 24 hours by plating onto appropriate selective media. Viability of individual strains was measured using the same method as for the mixed cultures.

[5] = test system: primary rat mixed glial cells
Procedure: as §4, §6
Glucose restriction was done by incubating cells in glucose free DMEM (Invitrogen) supplemented with either low glucose (0.5 gL) or normal glucose (1.0 gL) for 24 hours. Serum restriction was done by incubating cells in DMEMIF12 with either 10% or 1% FBS for 24 hours. […]
as §5
Cyclophosphamide (CP, Sigma) was used for in vitro chemotherapy studies. […] Cytotoxicity was measured by either lactate dehydrogenase released using the CytoTox 96 Non-Radioactive Cytotoxicity Assay kit (Promega) or the ability to reduce methylthiazolyldiphenyl-tetrazolium bromide (MTT). LDH released into the medium by lysed cells were measured with a 10-minute enzymatic assay that converts a tetrazolium salt (INT) into a red formazan product. A 96-well based colorimetric assay measured the amount of the red formazan formed, which is proportional to the number of dead cells. % LDH release was determined with reference to the maximum and background LDH release of control cells.

[6] = test system: sch9/aktΔRAS2^val19 cells; experiment: Yeast viability (CFU) in mixed cultures, chronic MMS treatment, RAS2val19-expressing cells; type: cell-based, S. cerevisiae; conditions: 48-hour treatment, 0.01% MMS
Procedure: (§1) Overnight cultures were diluted to OD600 0.1 into SDC medium. After 24 hours (day I), the appropriate strains were mixed 1:1 based on OD600 and incubated for 2 hours. The mixed cultures were then treated with either cyclophosphamide (CP, 0.1 M) or […] (MMS, 0.01%, Sigma) in medium or water (STS). For treatment SDC, MMS was introduced directly into the mixed culture to a final concentration of 0.01%. However, due to the high concentration of CP (0.1 M) used, CP was dissolved directly into the medium. To do so, mixed cultures were centrifuged for 5 minutes at 2,500 rpm and the media was collected, in which CP was dissolved to a concentration of 0.1 M. The mixed culture was then resuspended in the CP-containing medium. […] Viability was measured by quantifying colony-forming units (CFUs) every 24 hours by plating onto appropriate selective media. Viability of individual strains was measured using the same method as for the mixed cultures.
(§2) Overnight SDC cultures were diluted to OD600 0.1 into fresh SDC medium. […] Viability was measured as colony-forming units (CFUs) every 24 hours by plating onto appropriate selective media. Viability of individual strains was measured using the same method as for the mixed cultures. Relative survival shown was determined by the percentage of the ratio between the treated and untreated (control) cells.

[7] = test system: sch9/aktΔ; experiment: Yeast viability (CFU) in mixed cultures, chronic MMS treatment, sch9/aktΔ cells; type: cell-based, S. cerevisiae; conditions: 48-hour treatment, 0.01% MMS, mixed culture
Procedure: as §1, §2

[8] = test system: cortical neurons from E18 rat embryos; conditions: pre-treatment with inhibitor
Procedure: FIG. 23. […] Cortical neurons from E18 rat embryos were cultured onto 96-well plates (A) or glass coverslips in 6-well plates (B). On 10-14 DIV, the neurons were pre-treated with MEK1/ERK1/2 inhibitors U0126 or SL327. Oxidative stress was induced by hydrogen peroxide or menadione. Cell viability was measured with MTT survival assay (A) or live/dead assay (B). C) % death was calculated from the number of dead (red) and live (green) cells.

[9] = test system: primary rat cortical neurons; experiment: IGF-I and paraquat oxidative toxicity, MTT, cortical neurons; type: cell-based; conditions: 100 ng/ml IGF-I 24 hr, 100 μM paraquat
Procedure: (§3) FIG. 12. […] Primary rat cortical neurons or PC12 cells incubated in 1% serum and 4 g/L glucose were treated for 24 hr with vehicle, 100 μM of paraquat, 100 ng/ml of IGF-I followed by 100 μM of paraquat, or 100 ng/ml of IGF-1 alone and were then subjected to MTT reduction activity assay to assess cell viability. Data from 4 independent experiments are normalized to control and expressed as the mean±S.E.M.
Primary neurons from embryonic day 18 Sprague-Dawley rat cerebral cortices were dissociated in neurobasal medium (Invitrogen) supplemented with 0.5 mM L-glutamine, 25 μM L-glutamic acid and 2% B-27 and plated at 640 cells/mm^2 in 96-well plates which were pre-coated with 10 microg/ml poly-D-lysine dissolved in Borax buffer (0.15 M, pH 8.4). Neurons were maintained at 37° C. in 5% CO2 in neurobasal medium supplemented with B-27 and 0.5 mM L-glutamine for 4 days.
Primary rat neurons and PC12 cells were treated with IGF-1 and paraquat to determine the effect of IGF-1 on oxidative stress. Cortical neurons were treated for 24 hours in Eagle's minimal essential medium (Invitrogen) supplemented with 21 mM glucose and 1% horse serum. PC12 cells were plated at 5×10^4 cells/well onto poly-D-lysine coated. 96-well plates and were grown for 24 hours in F12K 1% HS. […] Survival was determined by the MTT assay and presented as percent ratio of treated to control.

[10] = test system: PC12 cells; experiment: IGF-I and paraquat oxidative toxicity, MTT, PC12 cells; type: cell-based, rat; conditions: 100 ng/ml IGF-I 24 hr, 100 μM paraquat
Procedure: as §3
Primary rat neurons and PC12 cells were treated with IGF-1 and paraquat to determine the effect of IGF-1 on oxidative stress. Cortical neurons were treated for 24 hours in Eagle's minimal essential medium (Invitrogen) supplemented with 21 mM glucose and 1% horse serum. PC12 cells were plated at 5×10^4 cells/well onto poly-D-lysine coated. 96-well plates and were grown for 24 hours in F12K 1% HS. Both types of cells were then treated with either 100 μM of paraquat, IGF-1 (100 ng/ml) followed 30 minutes later by paraquat (100 μM) or IGF-1 (100 ng/ml) alone in appropriate media. Survival was determined by the MTT assay and presented as percent ratio of treated to control.

O=P1(N(CCCl)CCCl)NCCCO1 (stereo not drawn) [CP, cyclophosphamide]
average weight loss ([1]; LID mice, 500 mg/kg cyclophosphamide): 10% | mortality ([1]; LID mice): 30% | weight loss ([1]; control mice, 500 mg/kg cyclophosphamide): 20% | mortality ([1]; control mice): 70% | signs of toxicity in surviving mice ([1]; surviving LID mice): did not show any signs of toxicity | toxicity to primary glial cells [2]: toxic | toxicity to C6 glioma cells in 10% serum versus 1% serum ([3]; 15 mg/ml CP): as toxic | toxicity to RAS2^val19 and wild type cells [4]: toxic | glial cells resistant ([5]; 12 mg/ml CP, 0.5 g/L glucose): 80% | cells that survived ([5]; 12 mg/ml CP, 1 g/L glucose): 20% | differential stress resistance of mammalian cells by the starvation-response methods ([5]; normal vs cancer cells): less than 10 fold

COS(C)(=O)=O [MMS, methyl methanesulfonate]
sch9/aktΔRAS2^val19 cells that survived ([6]; mixed culture (Example I)): none | sch9/aktΔRAS2^val19 cells that survived ([6]; mixed culture (Example II)): less than 5% | sch9/aktΔ cells that survived [7]: great majority

N#CC(=C(/N)Sc1ccccc1N)/C(C#N)=C(\N)Sc1ccccc1N [U0126]
resistance of neurons to oxidative stress (hydrogen peroxide or menadione) [8]: protects neurons against oxidative stress

IGF-I: rhIGF-I (ProSpec-Tany TechnoGene), 100 ng/ml
increase in the toxicity of CP to C6 glioma cells ([3]; 100 ng/ml IGF-I): minor increase; also recorded: did not increase | sensitization to oxidative toxicity [9]: sensitizes | sensitization to oxidative toxicity [10]: not in PC12 cells
